Source: US6773895B2, “Method for identifying substances which positively influence inflammatory conditions of chronic inflammatory airway diseases” (Boehringer Ingelheim Pharma KG, priority 2000, dated 2004)

Key:
[1] = system: MonoMac6 cells; assay: Chemotaxis (migration) of MonoMac6 cells, 48-well chemotaxis chamber; type: cell-based, human; conditions: PMA-treated MonoMac6 cells, 4 hours of migration, fold increase in migrated cells over control medium
Experimental: Since an increased invasion of macrophages in peripheral airways of COPD patients can be observed, we tested the chemotactic ability of MonoMac6 cells which serve as a cell culture model for alveolar macrophages. Chemotaxis of MonoMac6 is determined by administering different ligands for FPRL-1.
MonoMac6 cells are treated with PMA for 24-30 hours in order to induce an activation state of the cells. Cells are harvested, washed twice with RPMI 1640 without supplements, and seeded at a density of 500,000 cells/well (24-well plate) in the presence of 10 nM PMA. After 24-30 hours cells are released from the substratum by repeated rinsing with a pipet, spun down, counted and adjusted to a density of 1×10^6 cells/ml of RPMI 1640 media without supplements but in the presence of 10 nM PMA. Chemotaxis is performed in a 48-well chemotaxis chamber (Neuroprobe Inc.) and polycarbonate membranes with a pore size of 8 μm (Neuroprobe Inc.). The lower wells of the chamber are filled with 28 μl of different concentrations of lipoxin A4, W-peptide, MCP-1 as a positive control, and RPMI 1640 media without supplements (including 10 nM PMA) as a negative control. The lower wells are covered with the polycarbonate membrane and the upper compartments of the chamber are filled with 50 μl of the cell suspension (50,000 cells per well). After 4 hours of migration at 37° C., 5% CO2 the cells on the upper part of the membrane are scraped off and the cells attached at the lower part of the membrane are stained with the Diff Quik Staining Set (Dade Behring) according to the manufacturer's protocol. Stained cells are counted in 6 to 8 high power fields at a magnification of 250× with a light microscope. The migration index represents the fold increase in the number of cells migrated in response to the chemoattractant over control medium.

[2] = system: FPRL-1; assay: Expression of FPRL-1 in MonoMac6 cells after stimulation (TaqMan analysis); type: cell-based, human; conditions: 10 nM PMA
Experimental: MonoMac6 cells are cultivated in 24-well plates in RPMI 1640 media, supplemented with 10% FCS (low endotoxin), 2 mM glutamine, 1× non-essential amino acids, 200 U/ml penicillin, 200 μg/ml streptomycin, and 5 ml OPI media supplement (Sigma). Cells are grown to a density of 600,000 cells per well (2 ml media) and stimulated with 10 nM PMA (phorbol 12-myristate 13-acetate) (Sigma), or 20 ng/ml LPS (lipopolysaccharides from Salmonella minnesota Re595) (Sigma). For smoke exposure, cells are incubated in media enriched with smoke for 10 minutes at 37° C., 5% CO2 at a density of 1×10^6 cells/ml. Enrichment of RPMI 1640 media with smoke is performed with the smoke of two cigarettes. The smoke of the cigarettes is pulled into a 50 ml syringe (about 20 volumes of a 50-ml syringe per cigarette) and then perfused into 100 ml of RPMI 1640 media without supplements. Afterwards, the pH of the smoke-enriched media is adjusted to 7.4 and the media is sterilized through a 0.2 μm filter before use. After the exposure with smoke cells are washed at least twice with RPMI 1640 in order to remove residual smoke particles. Then cells are seeded in 24-well plates with 400,000-600,000 cells per well filled with 2 ml of fresh RPMI 1640 media including the supplements mentioned above.
Both cell types are cultivated at 37° C., 5% CO2 in a humidified atmosphere and cells are harvested at various time points in order to monitor time-dependent effects. Cells are spun down and washed with PBS, resuspended in 400 μl of RLT buffer (Qiagen RNeasy Total RNA Isolation Kit) with 143 mM β-mercaptoethanol, the DNA is sheared with a 20 g needle for at least 5 times and stored at −70° C.
Total RNAs are isolated with the Qiagen RNeasy Total RNA Isolation Kit (Qiagen) according to the manufacturer's protocol. Purified RNA is digested with RNase-free DNase (Qiagen) and used for TaqMan analysis.
Taqman analysis is used to determine mRNA-levels for FPRL-1 in cell lines after treatment with and without various stimuli at different time points. Total RNA isolated from U937 cells that were treated for 3 days with […] is used in order to optimize reaction conditions for determining the mRNA-levels of FPRL-1 and setting standard curves for FPRL-1 and GAPDH (glyceraldehyde-3-phosphate dehydrogenase) as a housekeeping gene. Quantification of FPRL-1 is done with the following primers: Forward primer (rhHM63 668FP, SEQ ID NO:22), Reverse primer (hHM63 525(+)RP, SEQ ID NO:23) and TaqMan probe (rhHM63 629(−)TP, SEQ ID NO:24) labeled with reporter dye FAM at the 5′ end and quencher dye TAMRA at the 3′ end. The mRNA-levels for GAPDH are determined with a predeveloped kit for GAPDH “TaqMan GAPDH Control Reagents” (P/N 402869) from PE Applied Biosystems. The GAPDH probe is labeled with JOE as the reporter dye and TAMRA as the quencher dye. RT-PCR reactions are performed with the “TaqMan EZ RT-PCR Core Reagents” (P/N N808-0236) kit from Perkin Elmer. Standard curves for FPRL-1 and GAPDH are performed with increasing concentrations of RNA from U937 cells treated with 1 μM retinoic acid ranging from 0, 5, 10, 25, 50 to 100 ng per assay. Reaction mixes contain 1× TaqMan EZ-buffer, 3 mM Mn(Oac)2, 300 μM dATP, dCTP, dGTP, and 600 μM dUTP, 2.5 U rTth DNA polymerase, 0.25 U AmpErase UNG in a total volume of 25 μl. For analysis of FPRL-1 reaction mixes include 300 nM of rhHM63 668(−)FP and hHM63 525(+)RP and 100 nM of rhHM63 629(−)TP. The primer concentrations for determining GAPDH levels are 200 nM for each primer and 100 nM for the Taqman probe. In order to determine mRNA levels for FPRL-1 and GAPDH in human subjects and cell lines, 16 to 50 ng RNA per reaction are used. All samples are run in triplicate. The reactions are performed with “MicroAmp Optical 96-well reaction plates” sealed with “MicroAmp Optical Caps” (PE Applied Biosystems) in an ABI PRISM 7700 Sequence Detection System (PE Applied Biosystems). […]

[3] = system: neutrophils; conditions: cited from earlier work
[4] = system: monocytes; conditions: cited from earlier work
[5] = system: human bronchi; conditions: cited from earlier work
[6] = system: IL-8; assay: Expression of IL-8 in MonoMac 6 cells after stimulation with FPRL-1 ligands (TaqMan); conditions: 200 nM
Experimental: (§1) In order to examine the effects of ligands for FPRL-1, MonoMac6 cells are seeded at a density of 250,000 cells/ml in 24-well plates (with 2 ml per well), grown for 24 hours at 37° C., 5% CO2 in a humidified atmosphere before stimulation with 200 nM lipoxin A4 (Biomol), W-peptide (1 μM) (synthesized by Metabion, Martinsried), and LPS (Sigma) as a positive control. Cells are harvested at different time points, and total RNA is isolated as described above using the Qiagen RNeasy Total RNA Isolation Kit (Qiagen).
(§2) The RNA is used for Taqman analysis in order to monitor the expression of inflammatory markers like TNFα, IL-8, and MMP-12.

[7] = system: TNFα; assay: Expression of TNFα in MonoMac 6 cells after stimulation with FPRL-1 ligands (TaqMan); conditions: 200 nM
Experimental: as §1, §2

[8] = system: MMP-12; assay: Expression of MMP-12 in MonoMac 6 cells after stimulation with FPRL-1 ligands (TaqMan); conditions: 200 nM
Experimental: as §1, §2

monocyte chemotactic protein 1 [MCP-1]
Migration Index ([1]; 20 ng/ml): 2.59

CCCCCCCCCCCCCC(=O)O[C@@H]1[C@@H](C)[C@@]2(O)[C@@H](C=C(CO)C[C@]3(O)C(=O)C(C)=C[C@@H]23)[C@@H]2C(C)(C)[C@]12OC(C)=O [PMA, phorbol 12-myristate 13-acetate]
ng FPRL-1 mRNA/ ng GAPDH mRNA ([2]; t 0 h): 0.00 ng FPRL-1 mRNA/ ng GAPDH mRNA
ng FPRL-1 mRNA/ ng GAPDH mRNA ([2]; t 1 h): 0.00 ng FPRL-1 mRNA/ ng GAPDH mRNA
ng FPRL-1 mRNA/ ng GAPDH mRNA ([2]; t 3 h): 0.00 ng FPRL-1 mRNA/ ng GAPDH mRNA
ng FPRL-1 mRNA/ ng GAPDH mRNA ([2]; t 12 h): 0.00 ng FPRL-1 mRNA/ ng GAPDH mRNA
ng FPRL-1 mRNA/ ng GAPDH mRNA ([2]; t 24 h): 0.00 ng FPRL-1 mRNA/ ng GAPDH mRNA
ng FPRL-1 mRNA/ ng GAPDH mRNA ([2]; t 48 h): 0.43 ng FPRL-1 mRNA/ ng GAPDH mRNA
ng FPRL-1 mRNA/ ng GAPDH mRNA ([2]; t 72 h): 0.01 ng FPRL-1 mRNA/ ng GAPDH mRNA

CCCCC[C@H](O)/C=C/C=C\C=C\C=C\[C@@H](O)[C@@H](O)CCCC(=O)O [Lipoxin A4, lipoxin A4]
Migration Index ([1]; 10 nM): 0.86
Migration Index ([1]; 100 nM): 1.31
Migration Index ([1]; 1 μM): 1.68
chemotaxis and adhesion in neutrophils [3]: inhibits
transmigration through epithelial cells [3]: downregulates
chemotaxis, adherence and calcium release in monocytes [4]: stimulates
contraction of human bronchi [5]: dose-dependent contraction
Expression of IL-8, Fold Induction ([6]; t 0 h): 1.00 fold
Expression of IL-8, Fold Induction ([6]; t 3 h): 1.99 fold
Expression of TNFα, Fold Induction ([7]; t 0 h): 1.00 fold
Expression of TNFα, Fold Induction ([7]; t 3 h): 2.43 fold
Expression of MMP-12, Fold Induction ([8]; t 0 h): 1.00 fold
Expression of MMP-12, Fold Induction ([8]; t 3 h): 1.42 fold

CSCC[C@H](NC(=O)[C@H](Cc1ccc(O)cc1)NC(=O)[C@H](CCCCN)NC(=O)[C@@H](N)Cc1c[nH]c2ccccc12)C(=O)N[C@H](C(=O)N[C@H](CCSC)C(N)=O)C(C)C [W-peptide, W-K-Y-M-V-m]
Migration Index ([1]; 10 nM): 0.95
Migration Index ([1]; 100 nM): 1.23
Migration Index ([1]; 1 μM): 2.46
